Source: patent publication US10927123B2, “Modulators of the beta-3 adrenergic receptor useful for the treatment or prevention of disorders related thereto” (Arena Pharmaceuticals, Inc., priority 2016, dated 2021)

Biological target: Beta-3 Adrenergic Receptor (Homo sapiens (Human), UniProt P13945)
Assay: HTRF cAMP antagonist assay (IC50 determination)
Type: cell-based
Settings: CHO-K1 cells stably expressing recombinant receptor; antagonism of isoproterenol at EC90; cAMP readout
Outline: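 CHO-K1 cells stably expressing the recombinant receptor were preincubated with compound (10-point, 5-fold dilutions; top final typically 10 or 100 μM) in PBS with 1 mM IBMX, then stimulated with isoproterenol at its EC90 for 1 h at room temperature. cAMP was read by HTRF against an on-plate standard curve.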

Sequence of Beta-3 Adrenergic Receptor (P13945 whole entry, species assumed): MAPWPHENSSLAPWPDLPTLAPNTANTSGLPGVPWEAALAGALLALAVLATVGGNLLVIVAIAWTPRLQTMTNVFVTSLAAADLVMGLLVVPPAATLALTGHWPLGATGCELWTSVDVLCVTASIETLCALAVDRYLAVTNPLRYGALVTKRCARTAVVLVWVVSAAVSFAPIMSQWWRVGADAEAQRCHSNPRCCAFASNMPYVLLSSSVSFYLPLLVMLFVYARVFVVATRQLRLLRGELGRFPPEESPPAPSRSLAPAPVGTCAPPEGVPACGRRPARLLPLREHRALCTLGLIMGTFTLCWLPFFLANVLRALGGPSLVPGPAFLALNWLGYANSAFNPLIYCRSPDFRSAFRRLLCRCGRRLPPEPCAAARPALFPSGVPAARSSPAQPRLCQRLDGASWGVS

Structure (SMILES) | IC50 [µM]
CCS(=O)(=O)c1cccc(OC[C@@H](O)CN[C@@H]2COC3(CCN(S(=O)(=O)c4ccc(OC)c(-c5ccc(C6(N)CC6)cc5)c4)CC3)C2)c1 [Compound 261, (S)-1-((S)-8-(4′-(1-aminocyclopropyl)-6-methoxybiphenyl-3-ylsulfonyl)-1-oxa-8-azaspiro[4.5]decan-3-ylamino)-3-(3-(ethylsulfonyl)phenoxy)propan-2-ol] | 0.0388
CC(C)(C)NCc1ccc(-c2cccc(S(=O)(=O)N3CCC4(CC3)C[C@@H](NC[C@H](O)COc3cccc(S(=O)(=O)C5(CO)CC5)c3)CO4)c2)cc1 [Compound 262, (S)-1-((R)-8-(4′-((tert-butylamino)methyl)biphenyl-3-ylsulfonyl)-1-oxa-8-azaspiro[4.5]decan-3-ylamino)-3-(3-(1-(hydroxymethyl)cyclopropylsulfonyl)phenoxy)propan-2-ol] | 0.982
CCC(C)(C)NCc1ccc(-c2cccc(S(=O)(=O)N3CCC4(CC3)C[C@@H](NC[C@H](O)COc3cccc(S(=O)(=O)C5(CO)CC5)c3)CO4)c2)cc1 [Compound 263, (S)-1-(3-(1-(hydroxymethyl)cyclopropylsulfonyl)phenoxy)-3-((R)-8-(4′-((tert-pentylamino)methyl)biphenyl-3-ylsulfonyl)-1-oxa-8-azaspiro[4.5]decan-3-ylamino)propan-2-ol] | 0.755
O=S(=O)(c1cccc(-c2ccc(CNCC(F)(F)F)cc2)c1)N1CCC2(CC1)C[C@@H](NC[C@H](O)COc1cccc(S(=O)(=O)C3(CO)CC3)c1)CO2 [Compound 264, (S)-1-(3-(1-(hydroxymethyl)cyclopropylsulfonyl)phenoxy)-3-((R)-8-(4′-((2,2,2-trifluoroethylamino)methyl)biphenyl-3-ylsulfonyl)-1-oxa-8-azaspiro[4.5]decan-3-ylamino)propan-2-ol] | 0.98
O=S(=O)(c1cccc(-c2ccc(CN3CCC3)cc2)c1)N1CCC2(CC1)C[C@@H](NC[C@H](O)COc1cccc(S(=O)(=O)C3(CO)CC3)c1)CO2 [Compound 265, (S)-1-((R)-8-(4′-(azetidin-1-ylmethyl)biphenyl-3-ylsulfonyl)-1-oxa-8-azaspiro[4.5]decan-3-ylamino)-3-(3-(1-(hydroxymethyl)cyclopropylsulfonyl)phenoxy)propan-2-ol] | 0.374
O=S(=O)(c1cccc(-c2ccc(CN3CCOCC3)cc2)c1)N1CCC2(CC1)C[C@@H](NC[C@H](O)COc1cccc(S(=O)(=O)C3(CO)CC3)c1)CO2 [Compound 266, (S)-1-(3-(1-(hydroxymethyl)cyclopropylsulfonyl)phenoxy)-3-((R)-8-(4′-(morpholinomethyl)biphenyl-3-ylsulfonyl)-1-oxa-8-azaspiro[4.5]decan-3-ylamino)propan-2-ol] | 1.29
COCCNCc1ccc(-c2cccc(S(=O)(=O)N3CCC4(CC3)C[C@@H](NC[C@H](O)COc3cccc(S(=O)(=O)C5(CO)CC5)c3)CO4)c2)cc1 [Compound 267, (S)-1-(3-(1-(hydroxymethyl)cyclopropylsulfonyl)phenoxy)-3-((R)-8-(4′-((2-methoxyethylamino)methyl)biphenyl-3-ylsulfonyl)-1-oxa-8-azaspiro[4.5]decan-3-ylamino)propan-2-ol] | 0.442
CCNCc1ccc(-c2cccc(S(=O)(=O)N3CCC4(CC3)C[C@@H](NC[C@H](O)COc3cccc(S(=O)(=O)C5(CO)CC5)c3)CO4)c2)cc1 [Compound 268, (S)-1-((R)-8-(4′-((ethylamino)methyl)biphenyl-3-ylsulfonyl)-1-oxa-8-azaspiro[4.5]decan-3-ylamino)-3-(3-(1-(hydroxymethyl)cyclopropylsulfonyl)phenoxy)propan-2-ol] | 0.138
O=S(=O)(c1cccc(-c2ccc(CNC3CCC3)cc2)c1)N1CCC2(CC1)C[C@@H](NC[C@H](O)COc1cccc(S(=O)(=O)C3(CO)CC3)c1)CO2 [Compound 269, (S)-1-((R)-8-(4′-((cyclobutylamino)methyl)biphenyl-3-ylsulfonyl)-1-oxa-8-azaspiro[4.5]decan-3-ylamino)-3-(3-(1-(hydroxymethyl)cyclopropylsulfonyl)phenoxy)propan-2-ol] | 0.4
NCCNCc1ccc(-c2cccc(S(=O)(=O)N3CCC4(CC3)C[C@@H](NC[C@H](O)COc3cccc(S(=O)(=O)C5(CO)CC5)c3)CO4)c2)cc1 [Compound 270, (S)-1-((R)-8-(4′-((2-aminoethylamino)methyl)biphenyl-3-ylsulfonyl)-1-oxa-8-azaspiro[4.5]decan-3-ylamino)-3-(3-(1-(hydroxymethyl)cyclopropylsulfonyl)phenoxy)propan-2-ol] | 0.0923
NCCCNCc1ccc(-c2cccc(S(=O)(=O)N3CCC4(CC3)C[C@@H](NC[C@H](O)COc3cccc(S(=O)(=O)C5(CO)CC5)c3)CO4)c2)cc1 [Compound 271, (S)-1-((R)-8-(4′-((3-aminopropylamino)methyl)biphenyl-3-ylsulfonyl)-1-oxa-8-azaspiro[4.5]decan-3-ylamino)-3-(3-(1-(hydroxymethyl)cyclopropylsulfonyl)phenoxy)propan-2-ol] | 0.206
CC(C)CNCc1ccc(-c2cccc(S(=O)(=O)N3CCC4(CC3)C[C@@H](NC[C@H](O)COc3cccc(S(=O)(=O)C5(CO)CC5)c3)CO4)c2)cc1 [Compound 272, (S)-1-(3-(1-(hydroxymethyl)cyclopropylsulfonyl)phenoxy)-3-((R)-8-(4′-((isobutylamino)methyl)biphenyl-3-ylsulfonyl)-1-oxa-8-azaspiro[4.5]decan-3-ylamino)propan-2-ol] | 0.566
C[C@H]1CN(C)c2cc(S(=O)(=O)N3CCC4(CC3)C[C@@H](NC[C@H](O)COc3cccc(S(=O)(=O)C5CC5)c3)CO4)cnc2O1 [Compound 274, (S)-1-(3-(cyclopropylsulfonyl)phenoxy)-3-((R)-8-((S)-1,3-dimethyl-2,3-dihydro-1H-pyrido[2,3-b][1,4]oxazin-7-ylsulfonyl)-1-oxa-8-azaspiro[4.5]decan-3-ylamino)propan-2-ol] | 0.0384
Cc1c(S(=O)(=O)N2CCC3(CC2)C[C@@H](NC[C@H](O)COc2cccc(S(=O)(=O)C4CC4)c2)CO3)cnc2c1N(C)CCO2 [Compound 275, (S)-1-(3-(cyclopropylsulfonyl)phenoxy)-3-((R)-8-(1,8-dimethyl-2,3-dihydro-1H-pyrido[2,3-b][1,4]oxazin-7-ylsulfonyl)-1-oxa-8-azaspiro[4.5]decan-3-ylamino)propan-2-ol] | 0.0623
Cc1c(S(=O)(=O)N2CCC3(CC2)C[C@@H](NC[C@H](O)COc2cccc(S(=O)(=O)CC(N)=O)c2)CO3)cnc2c1N(C)CCO2 [Compound 276, 2-(3-((S)-3-((R)-8-(1,8-dimethyl-2,3-dihydro-1H-pyrido[2,3-b][1,4]oxazin-7-ylsulfonyl)-1-oxa-8-azaspiro[4.5]decan-3-ylamino)-2-hydroxypropoxy)phenylsulfonyl)acetamide] | 1.81
C[C@H]1CN(C)c2cc(S(=O)(=O)N3CCC4(CC3)C[C@H](NC[C@H](O)COc3cccc(S(=O)(=O)C5CC5)c3)CO4)cnc2O1 [Compound 277, (S)-1-(3-(cyclopropylsulfonyl)phenoxy)-3-((S)-8-((S)-1,3-dimethyl-2,3-dihydro-1H-pyrido[2,3-b][1,4]oxazin-7-ylsulfonyl)-1-oxa-8-azaspiro[4.5]decan-3-ylamino)propan-2-ol] | 0.0165
C[C@H]1CN(C)c2cc(S(=O)(=O)N3CCC4(CC3)C[C@@H](NC[C@H](O)COc3cccc(S(=O)(=O)CC(N)=O)c3)CO4)cnc2O1 [Compound 278, 2-(3-((S)-3-((R)-8-((S)-1,3-dimethyl-2,3-dihydro-1H-pyrido[2,3-b][1,4]oxazin-7-ylsulfonyl)-1-oxa-8-azaspiro[4.5]decan-3-ylamino)-2-hydroxypropoxy)phenylsulfonyl)acetamide] | 0.586
Cn1cnc2cc(S(=O)(=O)N3CCC4(CC3)C[C@@H](NC[C@H](O)COc3cccc(S(=O)(=O)C5CC5)c3)CO4)cnc21 [Compound 279, (S)-1-(3-(cyclopropylsulfonyl)phenoxy)-3-((R)-8-(3-methyl-3H-imidazo[4,5-b]pyridin-6-ylsulfonyl)-1-oxa-8-azaspiro[4.5]decan-3-ylamino)propan-2-ol] | 0.0397
O=C1NCc2ncc(S(=O)(=O)N3CCC4(CC3)C[C@@H](NC[C@H](O)COc3cccc(S(=O)(=O)C5CC5)c3)CO4)cc21 [Compound 280, 3-((R)-3-((S)-3-(3-(cyclopropylsulfonyl)phenoxy)-2-hydroxypropylamino)-1-oxa-8-azaspiro[4.5]decan-8-ylsulfonyl)-6,7-dihydro-5H-pyrrolo[3,4-b]pyridin-5-one] | 0.0964
O=c1[nH]c2cc(S(=O)(=O)N3CCC4(CC3)C[C@@H](NC[C@H](O)COc3cccc(S(=O)(=O)C5CC5)c3)CO4)cnc2[nH]1 [Compound 281, 6-((R)-3-((S)-3-(3-(cyclopropylsulfonyl)phenoxy)-2-hydroxypropylamino)-1-oxa-8-azaspiro[4.5]decan-8-ylsulfonyl)-1H-imidazo[4,5-b]pyridin-2(3H)-one] | 0.0579
O=S(=O)(c1cccc(OC[C@@H](O)CN[C@H]2COC3(CCN(S(=O)(=O)c4cnc5c(c4)CCCC5)CC3)C2)c1)C1CC1 [Compound 282, (S)-1-(3-(cyclopropylsulfonyl)phenoxy)-3-((R)-8-(5,6,7,8-tetrahydroquinolin-3-ylsulfonyl)-1-oxa-8-azaspiro[4.5]decan-3-ylamino)propan-2-ol] | 0.0237
C[C@@H]1CN(C)c2cc(S(=O)(=O)N3CCC4(CC3)C[C@@H](NC[C@H](O)COc3cccc(S(=O)(=O)C5(CO)CC5)c3)CO4)cnc2O1 [Compound 283, (S)-1-((R)-8-((R)-1,3-dimethyl-2,3-dihydro-1H-pyrido[2,3-b][1,4]oxazin-7-ylsulfonyl)-1-oxa-8-azaspiro[4.5]decan-3-ylamino)-3-(3-(1-(hydroxymethyl)cyclopropylsulfonyl)phenoxy)propan-2-ol] | 0.0689
